Results on 37 molecules are retold here after patent US9096500B2, “Acyl sulfonamide compounds” (Pfizer Limited, priority 2010, dated 2015).

The target of the first assay is T1, Nav1.7 (or SCN9A) channel (Homo sapiens, UniProt Q15858).
T1 construct: expressed in transfected cells
T1 sequence (Q15858 whole entry): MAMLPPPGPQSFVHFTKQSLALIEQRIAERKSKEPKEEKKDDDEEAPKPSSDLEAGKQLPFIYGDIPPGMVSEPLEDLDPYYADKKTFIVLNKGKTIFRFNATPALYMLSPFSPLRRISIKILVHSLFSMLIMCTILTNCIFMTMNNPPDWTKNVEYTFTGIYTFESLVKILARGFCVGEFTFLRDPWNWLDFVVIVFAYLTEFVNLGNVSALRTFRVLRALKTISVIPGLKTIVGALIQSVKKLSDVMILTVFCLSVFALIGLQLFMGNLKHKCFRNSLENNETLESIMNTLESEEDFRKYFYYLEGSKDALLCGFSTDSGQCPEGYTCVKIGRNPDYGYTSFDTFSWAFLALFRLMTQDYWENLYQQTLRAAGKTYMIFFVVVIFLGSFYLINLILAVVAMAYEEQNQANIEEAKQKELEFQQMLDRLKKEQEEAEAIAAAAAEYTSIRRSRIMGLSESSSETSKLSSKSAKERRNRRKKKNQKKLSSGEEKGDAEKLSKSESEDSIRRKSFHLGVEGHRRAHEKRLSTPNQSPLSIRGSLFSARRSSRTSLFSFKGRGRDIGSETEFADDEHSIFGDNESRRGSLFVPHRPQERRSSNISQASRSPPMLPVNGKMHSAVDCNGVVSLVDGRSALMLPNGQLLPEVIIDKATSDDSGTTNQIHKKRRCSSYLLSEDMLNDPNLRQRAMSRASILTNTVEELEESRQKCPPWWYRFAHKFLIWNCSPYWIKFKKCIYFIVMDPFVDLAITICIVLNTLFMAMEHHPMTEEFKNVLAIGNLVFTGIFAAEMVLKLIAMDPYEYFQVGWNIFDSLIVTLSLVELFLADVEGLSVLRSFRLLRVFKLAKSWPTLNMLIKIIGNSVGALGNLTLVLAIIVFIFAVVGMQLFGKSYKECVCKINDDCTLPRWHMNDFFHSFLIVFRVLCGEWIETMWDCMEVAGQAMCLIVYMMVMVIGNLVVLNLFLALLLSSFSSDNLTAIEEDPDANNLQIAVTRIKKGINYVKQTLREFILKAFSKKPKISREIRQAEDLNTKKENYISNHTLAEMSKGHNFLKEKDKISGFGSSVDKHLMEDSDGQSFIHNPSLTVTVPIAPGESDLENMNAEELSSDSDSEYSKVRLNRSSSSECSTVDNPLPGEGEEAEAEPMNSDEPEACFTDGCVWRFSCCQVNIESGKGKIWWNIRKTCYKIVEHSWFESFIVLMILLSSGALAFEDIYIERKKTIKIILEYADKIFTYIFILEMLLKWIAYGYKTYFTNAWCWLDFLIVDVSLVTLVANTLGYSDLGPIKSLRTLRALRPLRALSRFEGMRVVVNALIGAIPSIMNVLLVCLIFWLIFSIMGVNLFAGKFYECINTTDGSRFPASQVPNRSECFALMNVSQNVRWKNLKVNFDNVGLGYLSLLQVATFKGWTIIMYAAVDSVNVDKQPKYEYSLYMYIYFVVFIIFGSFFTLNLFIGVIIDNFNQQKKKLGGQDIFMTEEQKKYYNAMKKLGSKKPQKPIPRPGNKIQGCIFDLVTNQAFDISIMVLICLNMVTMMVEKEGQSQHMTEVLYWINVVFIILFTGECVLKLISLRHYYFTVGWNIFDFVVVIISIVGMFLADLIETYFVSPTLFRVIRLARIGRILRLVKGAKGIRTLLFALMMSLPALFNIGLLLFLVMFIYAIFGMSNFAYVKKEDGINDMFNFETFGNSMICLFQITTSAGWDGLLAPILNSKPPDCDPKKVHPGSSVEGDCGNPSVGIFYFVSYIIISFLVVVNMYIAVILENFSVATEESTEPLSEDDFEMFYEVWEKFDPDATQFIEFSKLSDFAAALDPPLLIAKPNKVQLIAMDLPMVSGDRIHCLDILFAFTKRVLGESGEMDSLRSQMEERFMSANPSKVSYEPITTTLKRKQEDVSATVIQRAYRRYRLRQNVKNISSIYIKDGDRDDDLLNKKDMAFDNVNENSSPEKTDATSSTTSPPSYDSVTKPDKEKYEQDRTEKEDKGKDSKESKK
Nature of the assay: Nav1.7 (hSCN9A) electrophysiology assay, Ionworks Quattro platform. The conditions noted are these: IW: Ionworks Quattro automated electrophysiological platform; HEK cells stably expressing hSCN9A; read-out: Nav1.7 EIC50. It is filed as cell-based. For orientation: The patch-clamp technique gives a direct electrical read-out from membranes.
On to `COc1ccc(OCc2ccc(C(=O)NS(C)(=O)=O)cc2)cc1` [Example 31, 4-[(4-Methoxyphenoxy)methyl]-N-(methylsulfonyl)benzamide], for which the IC50 came to 22000 nM.

In the next assay the target is T1, Nav1.7 (or SCN9A) channel. Nature of the assay: Nav1.7 (hSCN9A) electrophysiology assay, PatchXpress platform. It is filed as cell-based. To be noted: estimated IC50 from single point electrophysiology data, HEK cells stably expressing hSCN9A, held at V1/2 of inactivation, read-out: Nav1.7 EIC50. In outline:
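HEK cells stably expressing hSCN9A were recorded by whole-cell voltage clamp, including on PatchXpress, at 22–24°C with extracellular solution at pH 7.4. A 20 msec step to 0 mV followed an 8 s conditioning prepulse to the empirically determined inactivation V1/2. Inhibition was taken from current amplitude before vs after compound.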
As for `CS(=O)(=O)NC(=O)c1cc(F)c(OCC2CCC2)cc1F` [Example 197, 4-(cyclobutylmethoxy)-2,5-difluoro-N-(methylsulfonyl)benzamide], the IC50 is greater than 1000 nM. Regarding `COc1ccc(COc2cc(F)c(C(=O)NS(C)(=O)=O)cc2F)cc1` [Example 198, 2,5-difluoro-4-[(4-methoxybenzyl)oxy]-N-(methylsulfonyl)benzamide], the IC50 is greater than 1000 nM. `CS(=O)(=O)NC(=O)c1cc(F)c(OCc2ccccc2F)cc1F` [Example 199, 2,5-difluoro-4-[(2-fluorobenzyl)oxy]-N-(methylsulfonyl)benzamide]: the IC50 is 2400 nM. Same read-out and setting: under `COc1cc(C)ccc1COc1cc(F)c(C(=O)NS(C)(=O)=O)cc1F` [Example 200, 2,5-difluoro-4-[(2-methoxy-4-methylbenzyl)oxy]-N-(methylsulfonyl)benzamide] stands 5000 nM.

Consider `COc1cc(COc2cc(F)c(C(=O)NS(C)(=O)=O)cc2F)cc(OC)c1` [Example 201, 4-[(3,5-dimethoxybenzyl)oxy]-2,5-difluoro-N-(methylsulfonyl)benzamide], for which the IC50 was greater than 1000 nM. With `COc1ccc(OC)c(COc2cc(F)c(C(=O)NS(C)(=O)=O)cc2F)c1` [Example 202, 4-[(2,5-dimethoxybenzyl)oxy]-2,5-difluoro-N-(methylsulfonyl)benzamide], the IC50 was 11000 nM. Still for that read-out and setting: the result for `Cc1ccc(COc2cc(F)c(C(=O)NS(C)(=O)=O)cc2F)cc1C` [Example 203, 4-[(3,4-dimethylbenzyl)oxy]-2,5-difluoro-N-(methylsulfonyl)benzamide] reads 1700 nM.

Regarding `CS(=O)(=O)NC(=O)c1ccc(OCc2ccc(F)cc2F)cc1` [Example 204, 4-[(2,4-difluorobenzyl)oxy]-N-(methylsulfonyl)benzamide], the IC50 was 3600 nM. Still for that read-out and setting: the result for `COc1ccc(F)c(COc2cc(F)c(C(=O)NS(C)(=O)=O)cc2F)c1` [Example 205, 2,5-difluoro-4-[(2-fluoro-5-methoxybenzyl)oxy]-N-(methylsulfonyl)benzamide] reads greater than 3000 nM; that for `COc1cccc(COc2cc(F)c(C(=O)NS(C)(=O)=O)cc2F)c1OC` [Example 206, 4-[(2,3-dimethoxybenzyl)oxy]-2,5-difluoro-N-(methylsulfonyl)benzamide], greater than 1000 nM; that for `CS(=O)(=O)NC(=O)c1cc(F)c(OCc2cccc(Cl)c2)cc1F` [Example 207, 4-[(3-chlorobenzyl)oxy]-2,5-difluoro-N-(methylsulfonyl)benzamide], greater than 300 nM. On to `CS(=O)(=O)NC(=O)c1ccc(OCc2cc(F)ccc2F)cc1` [Example 208, 4-[(2,5-difluorobenzyl)oxy]-N-(methylsulfonyl)benzamide], for which the IC50 is 2600 nM.

For the molecule `COc1ccc(C)cc1COc1ccc(C(=O)NS(C)(=O)=O)cc1` [Example 210, 4-[(2-methoxy-5-methylbenzyl)oxy]-N-(methylsulfonyl)benzamide], the IC50 was greater than 1000 nM. The same measure, in the same setting: the result for `CS(=O)(=O)NC(=O)c1cc(F)c(OCc2ccc(OC(F)F)cc2)cc1F` [Example 211, 4-{[4-(difluoromethoxy)benzyl]oxy}-2,5-difluoro-N-(methylsulfonyl)benzamide] reads 2600 nM. For the molecule `CS(=O)(=O)NC(=O)c1cc(F)c(OCc2ccc(OC(F)(F)F)cc2)cc1F` [Example 212, 2,5-difluoro-N-(methylsulfonyl)-4-{[4-(trifluoromethoxy)benzyl]oxy}benzamide], the IC50 is greater than 300 nM. For the molecule `CS(=O)(=O)NC(=O)c1ccc(OCc2ccc(Cl)cc2F)cc1` [Example 213, 4-[(4-chloro-2-fluorobenzyl)oxy]-N-(methylsulfonyl)benzamide], the IC50 was greater than 300 nM.

Regarding `CS(=O)(=O)NC(=O)c1cc(F)c(OCc2cccc(Cl)c2Cl)cc1F` [Example 214, 4-[(2,3-dichlorobenzyl)oxy]-2,5-difluoro-N-(methylsulfonyl)benzamide], the IC50 is 3800 nM. The same measure, in the same setting: under `COc1cc(F)ccc1COc1cc(F)c(C(=O)NS(C)(=O)=O)cc1F` [Example 215, 2,5-difluoro-4-[(4-fluoro-2-methoxybenzyl)oxy]-N-(methylsulfonyl)benzamide] stands greater than 1000 nM; under `CS(=O)(=O)NC(=O)c1cc(F)c(OCc2ccc(F)cc2)cc1F` [Example 216, 2,5-difluoro-4-[(4-fluorobenzyl)oxy]-N-(methylsulfonyl)benzamide], 3800 nM; under `Cc1cccc(COc2cc(F)c(C(=O)NS(C)(=O)=O)cc2F)c1` [Example 217, 2,5-difluoro-4-[(3-methylbenzyl)oxy]-N-(methylsulfonyl)benzamide], greater than 1000 nM. The same measure, in the same setting: under `CS(=O)(=O)NC(=O)c1cc(F)c(OCc2ccccc2OC(F)F)cc1F` [Example 218, 4-{[2-(difluoromethoxy)benzyl]oxy}-2,5-difluoro-N-(methylsulfonyl)benzamide] stands 3400 nM; under `COc1ccc(C)cc1COc1cc(F)c(C(=O)NS(C)(=O)=O)cc1F` [Example 219, 2,5-difluoro-4-[(2-methoxy-5-methylbenzyl)oxy]-N-(methylsulfonyl)benzamide], greater than 1000 nM; under `CS(=O)(=O)NC(=O)c1cc(F)c(OCc2ccccc2C(F)(F)F)cc1F` [Example 220, 2,5-difluoro-N-(methylsulfonyl)-4-{[2-(trifluoromethyl)benzyl]oxy}benzamide], 1700 nM. As for `CS(=O)(=O)NC(=O)c1cc(F)c(OCc2ccccc2Cl)cc1F` [Example 221, 4-[(2-chlorobenzyl)oxy]-2,5-difluoro-N-(methylsulfonyl)benzamide], the IC50 was 1800 nM. The same measure, in the same setting: under `COc1cc(COc2cc(F)c(C(=O)NS(C)(=O)=O)cc2F)ccc1C` [Example 222, 2,5-difluoro-4-[(3-methoxy-4-methylbenzyl)oxy]-N-(methylsulfonyl)benzamide] stands 3600 nM. Consider `COc1ccc(Cl)cc1COc1ccc(C(=O)NS(C)(=O)=O)cc1` [Example 223, 4-[(5-chloro-2-methoxybenzyl)oxy]-N-(methylsulfonyl)benzamide], for which the IC50 was greater than 300 nM. Consider `CS(=O)(=O)NC(=O)c1cc(F)c(OCc2cccc(OC(F)F)c2)cc1F` [Example 224, 4-{[3-(difluoromethoxy)benzyl]oxy}-2,5-difluoro-N-(methylsulfonyl)benzamide], for which the IC50 was greater than 300 nM.

In the case of `CS(=O)(=O)NC(=O)c1cc(F)c(OCc2ccc(Cl)cc2)cc1F` [Example 225, 4-[(4-chlorobenzyl)oxy]-2,5-difluoro-N-(methylsulfonyl)benzamide], the IC50 was greater than 300 nM. As for `CCOc1ccccc1COc1cc(F)c(C(=O)NS(C)(=O)=O)cc1F` [Example 226, 4-[(2-ethoxybenzyl)oxy]-2,5-difluoro-N-(methylsulfonyl)benzamide], the IC50 was greater than 1000 nM. Consider `CS(=O)(=O)NC(=O)c1cc(F)c(OCc2ccc3ccccc3c2)cc1F` [Example 227, 2,5-difluoro-N-(methylsulfonyl)-4-(2-naphthylmethoxy)benzamide], for which the IC50 was 940 nM. `Cc1ccc(COc2cc(F)c(C(=O)NS(C)(=O)=O)cc2F)cc1Cl` [Example 228, 4-[(3-chloro-4-methylbenzyl)oxy]-2,5-difluoro-N-(methylsulfonyl)benzamide]: the IC50 is 1200 nM. With `CS(=O)(=O)NC(=O)c1cc(F)c(OCc2cc(F)ccc2F)cc1F` [Example 229, 4-[(2,5-difluorobenzyl)oxy]-2,5-difluoro-N-(methylsulfonyl)benzamide], the IC50 is greater than 1000 nM. The same measure, in the same setting: under `COc1ccc(Cl)cc1COc1cc(F)c(C(=O)NS(C)(=O)=O)cc1F` [Example 230, 4-[(5-chloro-2-methoxybenzyl)oxy]-2,5-difluoro-N-(methylsulfonyl)benzamide] stands 2200 nM; under `CS(=O)(=O)NC(=O)c1cc(F)c(OCc2ccc(Cl)cc2F)cc1F` [Example 231, 4-[(4-chloro-2-fluorobenzyl)oxy]-2,5-difluoro-N-(methylsulfonyl)benzamide], 1400 nM; under `CS(=O)(=O)NC(=O)c1cc(F)c(OCc2ccc(F)cc2Cl)cc1F` [Example 232, 4-[(2-chloro-4-fluorobenzyl)oxy]-2,5-difluoro-N-(methylsulfonyl)benzamide], 2100 nM. As for `COc1ccccc1COc1cc(F)c(C(=O)NS(C)(=O)=O)cc1F` [Example 233, 2,5-difluoro-4-[(2-methoxybenzyl)oxy]-N-(methylsulfonyl)benzamide], the IC50 was greater than 1000 nM.
